Publication PMC8316236, “Mechanistic physiology-based pharmacokinetic modeling to elucidate vincristine-induced peripheral neuropathy following treatment with novel kinase inhibitors” (Cancer Chemotherapy and Pharmacology, 2021)

Assays:
[1] = target: T1, P-glycoprotein (P-gp, ABCB1) (Homo sapiens, UniProt P08183); assay: inside-out vesicular transport inhibition assay with tritiated probe substrate; format: biochemical
T1 construct: inside-out membrane vesicles prepared from HEK293 cells overexpressing human P-gp
T1 sequence (P08183 whole entry): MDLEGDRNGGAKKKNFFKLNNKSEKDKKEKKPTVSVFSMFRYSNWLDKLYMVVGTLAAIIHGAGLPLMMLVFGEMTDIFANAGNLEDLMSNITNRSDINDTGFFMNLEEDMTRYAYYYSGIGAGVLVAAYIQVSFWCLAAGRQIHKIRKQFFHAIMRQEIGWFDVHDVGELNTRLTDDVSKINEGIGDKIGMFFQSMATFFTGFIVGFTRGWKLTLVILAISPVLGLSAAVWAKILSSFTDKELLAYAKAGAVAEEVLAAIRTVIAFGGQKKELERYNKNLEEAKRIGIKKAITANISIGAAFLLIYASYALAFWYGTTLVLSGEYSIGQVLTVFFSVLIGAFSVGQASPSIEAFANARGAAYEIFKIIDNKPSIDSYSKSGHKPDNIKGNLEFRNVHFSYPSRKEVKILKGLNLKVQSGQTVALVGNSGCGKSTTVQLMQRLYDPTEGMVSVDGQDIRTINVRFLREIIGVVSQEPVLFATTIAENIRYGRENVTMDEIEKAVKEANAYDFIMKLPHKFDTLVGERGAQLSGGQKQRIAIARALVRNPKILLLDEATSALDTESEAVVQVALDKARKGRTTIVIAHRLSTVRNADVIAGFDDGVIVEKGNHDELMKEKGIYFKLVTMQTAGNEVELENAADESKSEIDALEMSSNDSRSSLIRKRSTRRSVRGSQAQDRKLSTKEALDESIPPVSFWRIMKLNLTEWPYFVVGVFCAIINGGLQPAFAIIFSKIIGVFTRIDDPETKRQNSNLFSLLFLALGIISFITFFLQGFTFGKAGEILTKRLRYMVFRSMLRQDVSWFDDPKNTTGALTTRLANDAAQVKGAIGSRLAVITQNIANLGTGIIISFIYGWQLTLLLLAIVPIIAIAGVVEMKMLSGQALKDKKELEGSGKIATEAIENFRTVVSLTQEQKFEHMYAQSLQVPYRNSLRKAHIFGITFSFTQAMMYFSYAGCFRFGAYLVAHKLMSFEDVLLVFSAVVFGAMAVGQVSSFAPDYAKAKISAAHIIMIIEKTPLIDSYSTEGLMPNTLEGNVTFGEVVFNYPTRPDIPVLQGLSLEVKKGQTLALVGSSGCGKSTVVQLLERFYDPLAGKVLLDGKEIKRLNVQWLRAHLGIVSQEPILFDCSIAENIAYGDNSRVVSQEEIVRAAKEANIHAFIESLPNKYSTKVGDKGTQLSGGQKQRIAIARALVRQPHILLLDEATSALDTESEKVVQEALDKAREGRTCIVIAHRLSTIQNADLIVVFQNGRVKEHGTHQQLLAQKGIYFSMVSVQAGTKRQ

[2] = target: T1, P-glycoprotein (P-gp, ABCB1); assay: inside-out vesicular transport inhibition assay with tritiated probe substrate; also Caco-2 bidirectional transport ([…]); format: biochemical

| IC50 [2] | Structure (SMILES) | IC50 [1] |
| --- | --- | --- |
| – | C=CC(=O)N1CCC[C@@H](n2nc(-c3ccc(Oc4ccccc4)cc3)c3c(N)ncnc32)C1 [ibrutinib] | 6 µM |
| 57 µM | CC#CC(=O)N1CCC[C@H]1c1nc(-c2ccc(C(=O)Nc3ccccn3)cc2)c2c(N)nccn12 [acalabrutinib] | – |
